“Also recorded” adds a separate entry of the source.
What was measured:
Assay type in all cases: physicochemical
[1] = Compression isotherm (surface pressure versus molecular area) of a Langmuir DPPC monolayer as pulmonary surfactant model
Description: The monolayer of native pulmonary surfactant was modeled by a Langmuir monolayer of DPPC. In this model, the DPPC molecules were spread using a spreading solvent onto the surface of water contained in a trough coated with Teflon®. After evaporation of the solvent, the DPPC molecules were progressively compressed using two mobile Teflon® barriers. The variation of the surface pressure was measured as a function of the compression by a pressure sensor such as a Wilhelmy blade.
Small quantities of perfluorooctyl bromide (PFOB) in liquid form (1-200 μl), contacted with the DPPC monolayer, result in the disappearance of the liquid expanded/liquid condensed phase transition of the phospholipid. […] FIG. 1 compares the compression isotherms of a DPPC monolayer alone and in contact with the fluorocarbon. In absence of fluorocarbon, one notes the presence of a plateau reflecting the coexistence of the expanded liquid state (fluid phase) and the condensed liquid state (crystalline islets). […] The DPPC monolayer is totally fluid.
Placing the Langmuir trough in a close space saturated with PFOB vapour, it is possible to study the interactions between the DPPC monolayer and the gaseous PFOB.

[2] = Grazing incidence X-ray diffraction of the DPPC monolayer; details: gaseous fluorocarbon, DPPC monolayer compressed at 40 mN·m^−1
Excerpt: The two diffraction peaks seen in the absence of fluorocarbon are characteristics of the molecular organisation of DPPC in crystalline islets (▪).

[3] = Fluorescence microscopy of the DPPC monolayer contacted with gaseous fluorocarbon
Excerpt: Fluorescence microscopy makes it possible to visualize the dissolution of crystalline islets of DPPC molecules when the monolayer is contacted with gaseous PFOB (FIG. 3A).

[4] = gaseous fluorocarbon, saturated atmosphere

SMILES | plateau reflecting the coexistence of the expanded liquid state (fluid phase) and the condensed liquid state (crystalline islets) in the DPPC compression isotherm [1, 4] | diffraction peaks characteristic of DPPC crystalline islets / crystalline islets [2] | state of the DPPC monolayer ([1]; gaseous fluorocarbon) | state of the DPPC monolayer ([1]; liquid fluorocarbon) | plateau reflecting the coexistence of the expanded liquid state (fluid phase) and the condensed liquid state (crystalline islets) in the DPPC compression isotherm ([1]; liquid fluorocarbon (1-200 μl) contacted with the DPPC monolayer) | crystalline islets of DPPC seen by fluorescence microscopy, course with time ([3]; monolayer compressed at 10 mN·m^−1, 3, 5 and 7 min) | crystalline islets of DPPC seen by fluorescence microscopy ([3]; monolayer compressed at 10 mN·m^−1, after 3 minutes) | crystalline islets of DPPC seen by fluorescence microscopy ([3]; monolayer compressed at 10 mN·m^−1, after 5 minutes) | crystalline islets of DPPC seen by fluorescence microscopy ([3]; monolayer compressed at 10 mN·m^−1, after 7 minutes)
FC(F)(F)C(F)(F)C(F)(F)C(F)(F)C=CC(F)(F)C(F)(F)C(F)(F)C(F)(F)F [Example F-44E, bis(perfluorobutyl)ethene] | no longer seen; also recorded: disappears | these peaks have disappeared; also recorded: disappearance of the crystalline islets |  |  |  |  |  |  | 
FC(F)(F)C(F)(F)C(F)(F)C(F)(F)C(F)(F)C(F)(F)C(F)(F)C(F)(F)Br [PFOB, 1-bromo-heptadecafluorooctane] | no longer seen; also recorded: disappears |  | totally fluid | totally fluid | no longer seen; also recorded: disappeared totally | progressively disappear | becomes small | almost completely re-spread | completely disappeared
